Test results: the supplement of paper PMC8967900

Key:
Test in all cases: selective drug sensitivity score (sDSS, relative to normal bone marrow) (sDSS (score)); higher = more potent and effective on the cell line relative to normal bone marrow cells
Conditions in all cases: 72 h
[1] = system: 380
[2] = system: CCRF-CEM
[3] = system: CCRF-HSB2
[4] = system: COG-LL-319h
[5] = system: COG-LL-394h
[6] = system: COG-LL-402h
[7] = system: HAL-01
[8] = system: KASUMI-10
[9] = system: KASUMI-9
[10] = system: MHH-CALL-2
[11] = system: MHH-CALL-3
[12] = system: MN-60
[13] = system: MOLT-16
[14] = system: NALM-16
[15] = system: P30-OHKUBO
[16] = system: PF-382
[17] = system: RCH-ACV
[18] = system: REH
[19] = system: RPMI-8402
[20] = system: SUP-B15
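Also: ALL cell lines in 384-well plates, five doses spanning 10,000-fold, each plate scaled between vehicle and 100 µmol/L benzalkonium chloride controls, sDSS an adapted area-under-curve metric.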

## Clc1ccc(Nc2nnc(Cc3ccncc3)c3ccccc23)cc1 [Vatalanib] (top concentration 10000 nM)
[1]
  selective drug sensitivity score: 0
[2]
  selective drug sensitivity score: 0
[3]
  selective drug sensitivity score: 1.1
[4]
  selective drug sensitivity score: 0
[5]
  selective drug sensitivity score: 0
[6]
  selective drug sensitivity score: 0
[7]
  selective drug sensitivity score: 0
[8]
  selective drug sensitivity score: 0
[9]
  selective drug sensitivity score: 0
[10]
  selective drug sensitivity score: 0.1
[11]
  selective drug sensitivity score: 0
[12]
  selective drug sensitivity score: 0.1
[13]
  selective drug sensitivity score: 0
[14]
  selective drug sensitivity score: 0
[15]
  selective drug sensitivity score: 0
[16]
  selective drug sensitivity score: 0
[17]
  selective drug sensitivity score: 0
[18]
  selective drug sensitivity score: 0
[19]
  selective drug sensitivity score: 0
[20]
  selective drug sensitivity score: 0

## CCCS(=O)(=O)Nc1ccc(F)c(C(=O)c2c[nH]c3ncc(-c4ccc(Cl)cc4)cc23)c1F [Vemurafenib] (top concentration 10000 nM)
[1]
  selective drug sensitivity score: -1.14
[2]
  selective drug sensitivity score: 3.46
[3]
  selective drug sensitivity score: 4.06
[4]
  selective drug sensitivity score: 0.36
[5]
  selective drug sensitivity score: -1.14
[6]
  selective drug sensitivity score: -1.14
[7]
  selective drug sensitivity score: 0.16
[8]
  selective drug sensitivity score: -0.84
[9]
  selective drug sensitivity score: 1.66
[10]
  selective drug sensitivity score: 3.56
[11]
  selective drug sensitivity score: -1.14
[12]
  selective drug sensitivity score: -1.14
[13]
  selective drug sensitivity score: 3.76
[14]
  selective drug sensitivity score: -1.14
[15]
  selective drug sensitivity score: 3.86
[16]
  selective drug sensitivity score: 3.56
[17]
  selective drug sensitivity score: 3.36
[18]
  selective drug sensitivity score: 4.86
[19]
  selective drug sensitivity score: 2.06
[20]
  selective drug sensitivity score: 2.26

## CC[C@]1(O)C[C@H]2CN(CCc3c([nH]c4ccccc34)[C@@](C(=O)OC)(c3cc4c(cc3OC)N(C)[C@H]3[C@@](O)(C(=O)OC)[C@H](OC(C)=O)[C@]5(CC)C=CCN6CC[C@]43[C@@H]65)C2)C1 [Vinblastine] (top concentration 1000 nM)
[1]
  selective drug sensitivity score: 7
[2]
  selective drug sensitivity score: -1.5
[3]
  selective drug sensitivity score: -3.4
[4]
  selective drug sensitivity score: 19.7
[5]
  selective drug sensitivity score: -0.1
[6]
  selective drug sensitivity score: 4.6
[7]
  selective drug sensitivity score: -5.1
[8]
  selective drug sensitivity score: -1
[9]
  selective drug sensitivity score: 14.9
[10]
  selective drug sensitivity score: -3.2
[11]
  selective drug sensitivity score: -0.1
[12]
  selective drug sensitivity score: -2.4
[13]
  selective drug sensitivity score: 0.7
[14]
  selective drug sensitivity score: 5.4
[15]
  selective drug sensitivity score: 9.8
[16]
  selective drug sensitivity score: -5.3
[17]
  selective drug sensitivity score: 14.4
[18]
  selective drug sensitivity score: 7.1
[19]
  selective drug sensitivity score: 1.6
[20]
  selective drug sensitivity score: 12.9

## CC[C@]1(O)C[C@H]2CN(CCc3c([nH]c4ccccc34)[C@@](C(=O)OC)(c3cc4c(cc3OC)N(C=O)[C@H]3[C@@](O)(C(=O)OC)[C@H](OC(C)=O)[C@]5(CC)C=CCN6CC[C@]43[C@@H]65)C2)C1 [Vincristine] (top concentration 1000 nM)
[1]
  selective drug sensitivity score: 14.9
[2]
  selective drug sensitivity score: 4.42
[3]
  selective drug sensitivity score: 1.62
[4]
  selective drug sensitivity score: 16.3
[5]
  selective drug sensitivity score: 3.92
[6]
  selective drug sensitivity score: 13.7
[7]
  selective drug sensitivity score: -6.38
[8]
  selective drug sensitivity score: 4.72
[9]
  selective drug sensitivity score: 15.9
[10]
  selective drug sensitivity score: 5.52
[11]
  selective drug sensitivity score: 4.22
[12]
  selective drug sensitivity score: -1.58
[13]
  selective drug sensitivity score: 9.52
[14]
  selective drug sensitivity score: 12.3
[15]
  selective drug sensitivity score: 17.4
[16]
  selective drug sensitivity score: -0.18
[17]
  selective drug sensitivity score: 17.2
[18]
  selective drug sensitivity score: 17.5
[19]
  selective drug sensitivity score: 4.72
[20]
  selective drug sensitivity score: 18.5

## FC(F)c1nc2ccccc2n1-c1nc(N2CCOCC2)nc(N2CCOCC2)n1 [ZSTK474] (top concentration 10000 nM)
[1]
  selective drug sensitivity score: 13.7
[2]
  selective drug sensitivity score: 9.36
[3]
  selective drug sensitivity score: 3.76
[4]
  selective drug sensitivity score: 4.86
[5]
  selective drug sensitivity score: 0.86
[6]
  selective drug sensitivity score: 13.6
[7]
  selective drug sensitivity score: 18.5
[8]
  selective drug sensitivity score: 0.96
[9]
  selective drug sensitivity score: 9.86
[10]
  selective drug sensitivity score: 11.4
[11]
  selective drug sensitivity score: 10.3
[12]
  selective drug sensitivity score: 0.36
[13]
  selective drug sensitivity score: 6.46
[14]
  selective drug sensitivity score: 0.56
[15]
  selective drug sensitivity score: 13.3
[16]
  selective drug sensitivity score: 5.66
[17]
  selective drug sensitivity score: 28.4
[18]
  selective drug sensitivity score: 9.36
[19]
  selective drug sensitivity score: 5.86
[20]
  selective drug sensitivity score: 2.56
